Assays:
[1] = system: sciatic nerve injury model mice; test: Functional analysis of sciatic nerves in sciatic nerve injury models; type: in vivo, mouse
Protocol: To investigate the effect of SNJ1945 on promoting peripheral nerve regeneration, mouse sciatic nerve injury models were prepared and histologically analyzed. The models were used as sciatic nerve injury model mice produced according to the method of Wall et al. (Wall, 1979). More specifically, model mice were produced in the following manner. Four-week-old female mice were subjected to general anesthesia with sevoflurane inhalation anesthesia (Mylan N.V.) and laid down in a prone position. The skin on the femur was incised. The muscle layer was peeled off carefully and quickly so as not to injure the sciatic nerve. The nerve was severed (completely injured) at mid-thigh at one point with an interval of 40 mm from the periphery. The muscle layer and the skin were then sutured and disinfected. The mice were used as complete nerve injury model mice. Administration of SNJ1945 was performed by mixing SNJ-1945 into a diet (CE-2, CLEA Japan, Inc.) and orally administering the mixture continuously to each mouse in an amount of 200 μg of SNJ1945/per gram of body weight/day. […]
To further investigate the peripheral nerve regeneration promotion effect of SNJ1945, motor function of sciatic nerve injury model mice was evaluated based on the sciatic function index (SFI) and print length factor (PLI) using Footprint (Bain et al., 1989).

[2] = system: sciatic nerve injury model mice; test: Histological analysis of sciatic nerves in sciatic nerve injury models; type: in vivo, mouse
Protocol: To investigate the effect of SNJ1945 on promoting peripheral nerve regeneration, mouse sciatic nerve injury models were prepared and histologically analyzed. The models were used as sciatic nerve injury model mice produced according to the method of Wall et al. (Wall, 1979). More specifically, model mice were produced in the following manner. Four-week-old female mice were subjected to general anesthesia with sevoflurane inhalation anesthesia (Mylan N.V.) and laid down in a prone position. The skin on the femur was incised. The muscle layer was peeled off carefully and quickly so as not to injure the sciatic nerve. The nerve was severed (completely injured) at mid-thigh at one point with an interval of 40 mm from the periphery. The muscle layer and the skin were then sutured and disinfected. The mice were used as complete nerve injury model mice. Administration of SNJ1945 was performed by mixing SNJ-1945 into a diet (CE-2, CLEA Japan, Inc.) and orally administering the mixture continuously to each mouse in an amount of 200 μg of SNJ1945/per gram of body weight/day. Mice that were subjected to the same complete nerve injury and maintained on a diet not containing SNJ1945 (CE-2, CLEA Japan, Inc.) were used as a control group.
For histological analysis, after the mice were sacrificed by cervical dislocation, sciatic nerves were removed and fixed in 4% paraformaldehyde for 24 hours. After the paraformaldehyde was replaced with PBS, the sciatic nerves were embedded in paraffin. The tissue block was cut into 5-μm-thick sections and each tissue section was adhered onto a glass slide. For hematoxylin and eosin staining, each tissue section was 1) deparaffinized, 2) washed with water, 3) stained with Mayer's or Carrazzi's hematoxylin, 4) lightly washed with running water, 5) allowed to develop color, 6) stained with an eosin solution for 1 minute, and 7) subjected to dehydration, clearing, and embedding; and morphologically observed under an optical microscope.
Samples for observation under an electron microscope were prepared in the following manner. Sciatic nerves were removed in the same manner as above and then placed in a fixative (2.5% glutaraldehyde). Ten minutes after being placed in the fixative, the sciatic nerves were removed and placed in several drops of the fixative that had been dropped on a thick plastic sheet beforehand, and cut into thin sections. Post-fixation was performed using an aqueous osmium tetroxide solution. Next, free water contained in the tissue was replaced with ethyl alcohol. In order to make ultrathin sections, the tissue was embedded in an epoxy resin, and tissue sections were produced with an ultramicrotome. Observation was performed using a transmission electron microscope (Hitachi Ltd.: H-7500).

[3] = system: LIS1 protein; conditions: disclosed in WO2012/074120; based on calpain inhibitory activity; cited from earlier work
[4] = system: LIS1 protein; test: Expression amount of LIS1 protein in dorsal root ganglion neurons by western blotting; type: cell-based, mouse; conditions: 200 μM
Protocol: Dorsal root ganglion neurons were isolated from mice (3 days old or 15 days old) and the expression amount of LIS1 protein was analyzed in the order of time sequence from initiation of culture. Protein extraction was performed by adding 100 μl of a protein-dissolving liquid (30 mM Tris-HCl, pH 6.8, 1.5% sodium dodecyl sulfate (SDS), 0.3% bromophenol blue (BPB), 0.3% 2-mercapto-ethanol (2-ME), and 15% glycerol) per 5×10^4 dorsal root ganglion neurons and further performing ultrasonic treatment to achieve complete solubilization. After the heat treatment at 95° C. for 5 minutes, 1 μl of the obtained protein lysate was separated by 12.5% SDS-acrylamide electrophoresis and subjected to western blotting using anti-LIS1 antibody to detect LIS protein (the left-side figure in FIG. 2). The intensity of the detected band was analyzed (after correction with the intensity of the GAPDH band), and the expression ratio of LIS protein was determined (right-side figure in FIG. 2). […]
After the incubation, the procedures were performed in the same manner as described above in the “Analysis of Expression Amount of LIS1 Protein in Dorsal Root Ganglion Neurons” section to detect LIS protein by western blotting (the left-side figure in FIG. 5). Further, the intensity of the detected band was analyzed to determine the expression ratio of the LIS protein (the right-side figure in FIG. 5).

[5] = system: dorsal root ganglion neurons; test: Effect of SNJ1945 on axon elongation in mouse dorsal root ganglion neurons; type: cell-based; conditions: 200 μM, 24 or 48 hours, vs 1% DMSO
Protocol: Dorsal root ganglions were aseptically extracted from postnatal mice (3, 10, or 15 days old) under a stereoscopic microscope, and tissue fragments were dispersed by gentle pipetting and then treated with 0.025% trypsin/0.0013% DNaseI (both being final concentrations) at 37° C. for 20 minutes. After centrifugation, a BME culture solution (Gibco) containing 10% equine blood serum was added, and washing was performed. After the enzyme reaction was stopped, a BME culture solution containing 0.0052% DNaseI/10% equine blood serum (both being final concentrations) was added, and pipetting was performed. […] After incubation for another 15 minutes at room temperature, the resulting aggregates were washed well and carefully embedded using glycerol for fluorescence microscope observation (Merck) so as not to break up the aggregates. […] Dorsal root ganglion neurons were also isolated from LIS1 hetero mice (3 days old) and analyzed in the same manner.
Dorsal root ganglion neurons were isolated from 3-day-old mice or 15-day-old mice, and the correlation between the presence or absence of SNJ1945 addition and axon length was analyzed. […]

[6] = complete nerve injury model, oral in diet 200 μg/g body weight/day, 1 week after administration, vs control group

COCCOCCOC(=O)N[C@@H](CC(C)C)C(=O)N[C@@H](Cc1ccccc1)C(=O)C(=O)NC1CC1 [Compound 17, ((1S)-1-((((1S)-1-Benzyl-2,3-dioxo-3-(cyclopropylamino)propyl)amino)carbonyl)-3-methylbutyl)carbamic acid 5-methoxy-3-oxapentyl ester]
condition of the paw ([1]; complete injury model, one month after administering, vs control group mouse): recovered to the extent that the mouse could grasp the cage
recovery of complete nerve injury models (motor function) ([1]; continuous administration): further promoted recovery
myelin regeneration in sciatic nerves after nerve cell degeneration ([2]; administration started 1 week after severance, analyzed 1 month after severance): significantly high myelin regeneration
recovery of myelin (electron microscope) [2, 6]: recovery of myelin
recovery of sciatic nerves (hematoxylin and eosin staining) [2, 6]: significant recovery of sciatic nerves
number of myelin whose recovery was recognized (regeneration of myelin in sciatic nerves) ([2]; complete nerve injury model, oral in diet, FIG. 24, vs control group): significantly high regeneration of myelin
effect of amplifying LIS1 protein [3]: has an effect of amplifying LIS1 protein
expression amount of LIS1 protein ([4]; neurons from 3-day-old mice): not able to significantly increase the expression amount
expression amount of LIS1 protein ([4]; neurons from 15-day-old mice): significantly increased the expression amount of LIS1
axon elongation (axon length) ([5]; neurons from 3-day-old mice): axon elongation promotion effect
axon elongation (axon length) ([5]; neurons from 15-day-old mice): significant axon elongation promotion effect

— patent publication US11844776B2, “Composition for treatment and/or prevention of peripheral nerve disorder” (OSAKA CITY UNIVERSITY, priority 2016, dated 2023)
